From patent US20260101895A1, “[…] AND COMPOSITION” (Innospec Limited, priority 2022, published 2026)

Experiments:
[1] = initial solubility; 2 g complex in 100 ml deionised water, room temperature, 20 minutes, filtered 0.45 μm
Text: By the term “copper bioavailability” we mean the amount of copper that is released upon contact with water, i.e. so as to provide free copper ions for consumption by fungi. Copper bioavailability values may be measured using any suitable method, including the method as set out in the Examples. The copper bioavailability may be determined by measuring the content of copper in a sample (for example using a colorimetric test that compares to copper nitrate solutions of known concentrations) and converting the copper content to an amount of bioavailable copper (in ppm) using the formula: […]
The copper content is converted to bioavailable copper using the formula:
A solution of each copper amino carboxylic acid complex was prepared by dissolving 2 g of the copper complex in 100 ml deionised water and stirring at room temperature for 20 minutes. A sample of this solution was then withdrawn and filtered through a 0.45 μm syringe.
The filtered copper liquid was diluted with 1% nitric acid to yield a solution containing an approximate maximum of 1 mg/L Cu2+. The total copper content was then determined using a Perkin Elmer NexION 350D and converted to bioavailable copper using the formula above.

[2] = Repeated solubility: copper bioavailability over repeated wettings (colorimetric); details: for Bioavailable copper Step 1 / Bioavailable copper Step 2 / Bioavailable copper Step 3 / Bioavailable copper Step 4 / Bioavailable copper Step 5: repeated solubility; for Bioavailable copper Step 1: 1 g complex in 50 ml deionised water, centrifuged, filtered, colorimetric 635 nm; for Bioavailable copper Step 2 / Bioavailable copper Step 3 / Bioavailable copper Step 4 / Bioavailable copper Step 5: undissolved material in 50 ml fresh deionised water
Method: The colorimetric absorbance at 635 nm using a Hach Lange DR3900 Spectrophotometer of copper nitrate solutions of known concentrations gives a linear relationship where:
Absorbance is relative to a standard solution of 9.9 ml deionised water, 0.1 ml 68 to 70% nitric acid
The copper content is converted to bioavailable copper using the formula: […]
To determine the copper content of each of the copper amino carboxylic acid complexes, 9.9 ml of filtered copper containing solution and 0.1 mL of 68 to 70% nitric acid was added to a spectrometer vial to completely react all of the copper complex to copper nitrate.
The absorbance at 635 nm (pre-zeroed with solution of 9.9 mL deionised water and 0.1 mL nitric acid) was recorded.
1 g of each copper amino carboxylic acid complex was added to 50 ml deionised water in a 50 ml centrifuge tube and stirred. The resulting mixture was centrifuged at 4000 rpm for 30 minutes, a sample of this was withdrawn and filtered through a 0.45 μm syringe. The copper content was determined using the above colorimetric method.
The remaining liquid in the centrifuge tube was poured away leaving only some undissolved material. 50 ml of fresh deionised water was added to the centrifuge tube containing undissolved material. The stirring and centrifugation process was repeated until no undissolved material remained.
These measurements indicate the bioavailability of the copper over repeated wettings in use.

## O=C([O-])CNCC(=O)[O-].[Cu+2] [Copper iminodiacetate]
[1]
  Bioavailable Cu by ICP-MS: 33000 ppm
[2]
  Bioavailable copper Step 1: 27750 ppm
  Bioavailable copper Step 2: 27750 ppm
  Bioavailable copper Step 3: 27750 ppm
  Bioavailable copper Step 4: 27750 ppm
  Bioavailable copper Step 5: 27125 ppm
[2]; summary of Table 2
  Bioavailability over repeated wettings/steps (in words): good bioavailability for 3 or more wettings/steps

## Copper 2-aminooctanoate
[1]
  Bioavailable Cu by ICP-MS: 150 ppm

## Copper 12-aminododecanoate
[1]
  Bioavailable Cu by ICP-MS: 9200 ppm

## Copper L-asparaginate
[1]
  Bioavailable Cu by ICP-MS: 7125 ppm

## Copper isoleucinate
[1]
  Bioavailable Cu by ICP-MS: 13050 ppm

## Copper lysinate
[1]
  Bioavailable Cu by ICP-MS: 106950 ppm
[2]
  Bioavailable copper Step 1: 79000 ppm
  Bioavailable copper Step 2: 24000 ppm
  Bioavailable copper Step 3: 8375 ppm
  Bioavailable copper Step 4: 4000 ppm
  Bioavailable copper Step 5: 0 ppm

## Copper phenylalaninate
[1]
  Bioavailable Cu by ICP-MS: 5250 ppm

## Copper sarcosinate
[1]
  Bioavailable Cu by ICP-MS: 278000 ppm
